Laboratory results from ChEMBL document CHEMBL4765420, “Design, synthesis and biological evaluation of novel HDAC inhibitors with improved pharmacokinetic profile in breast cancer” (Eur J Med Chem, 2020).
pIC50: −log10 of the molar value. Calls of active or inactive are those of the source. The rule behind the calls is not given here.

Experiments:
MDA-MB-231 [1] = test: Inhibition of cell migration in human MDA-MB-231 cells assessed as decrease in MMP2 expression at 2.5 to 10 uM measured after 24 hrs Western blot analysis; type: functional, cell-based; conditions: dose 2.5-10 µM
MDA-MB-231 [2] = test: Induction of autophagy in human MDA-MB-231 cells expressing GFP-mRFP-LC3 assessed as increase in LC3 punta aggregation at 2.5 to 10 uM measured after 24 hrs by immunofluorescence assay; type: functional, cell-based; conditions: dose 2.5-10 µM
[3] = biological target: T1, Polyamine deacetylase HDAC10 (Homo sapiens, UniProt Q969S8); test: Inhibition of recombinant human C-terminal His-tagged HDAC10 expressed in baculovirus infected Sf9 insect cells using Ac-Arg-His-Lys(Ac)-Lys(Ac)-AMC as substrate measured after 30 mins by fluorescence assay
T1 sequence (Q969S8 whole entry): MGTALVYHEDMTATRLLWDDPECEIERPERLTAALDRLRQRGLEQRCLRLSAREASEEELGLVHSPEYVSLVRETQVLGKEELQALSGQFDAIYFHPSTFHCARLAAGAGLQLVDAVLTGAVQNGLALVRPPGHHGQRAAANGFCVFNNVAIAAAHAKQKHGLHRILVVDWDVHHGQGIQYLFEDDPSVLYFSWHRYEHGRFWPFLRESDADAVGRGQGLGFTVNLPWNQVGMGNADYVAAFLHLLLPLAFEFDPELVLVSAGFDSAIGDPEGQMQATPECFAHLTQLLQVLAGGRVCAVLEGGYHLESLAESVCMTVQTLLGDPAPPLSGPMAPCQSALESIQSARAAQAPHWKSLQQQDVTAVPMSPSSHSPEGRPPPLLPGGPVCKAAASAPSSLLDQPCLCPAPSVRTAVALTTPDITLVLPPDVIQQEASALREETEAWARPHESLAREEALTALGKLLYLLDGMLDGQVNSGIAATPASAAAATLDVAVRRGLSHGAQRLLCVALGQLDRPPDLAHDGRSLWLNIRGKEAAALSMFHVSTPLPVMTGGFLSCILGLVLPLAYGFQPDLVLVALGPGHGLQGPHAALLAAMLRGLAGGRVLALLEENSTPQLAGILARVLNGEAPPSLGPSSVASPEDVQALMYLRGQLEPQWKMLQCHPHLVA

MDA-MB-231 [4] = test: Induction of apoptosis in human MDA-MB-231 cells assessed as viable cells at 2.5 uM measured after 24 hrs by Annexin-V/propidium iodide staining based flow cytometry (reference value: 95.68 to 98.38%); type: functional; conditions: read-out: Activity
Histone deacetylase 1 = Histone deacetylase 1 (Homo sapiens, UniProt Q13547); test: Inhibition of recombinant human His-tagged HDAC1 expressed in insect cells using Ac-Leu-Gly-Lys(Ac)-AMC as substrate measured after 30 mins by fluorescence assay
MDA-MB-231 [5] = test: Induction of apoptosis in human MDA-MB-231 cells assessed as viable cells at 10 uM measured after 24 hrs by Annexin-V/propidium iodide staining based flow cytometry (reference value: 95.68 to 98.38%); type: functional; conditions: read-out: Activity
MDA-MB-231 [6] = test: Induction of apoptosis in human MDA-MB-231 cells assessed as necrotic cells at 10 uM measured after 24 hrs by Annexin-V/propidium iodide staining based flow cytometry (reference value: 0.22 to 0.46%); type: functional
MDA-MB-231 [7] = test: Induction of apoptosis in human MDA-MB-231 cells assessed as early apoptotic cells at 10 uM measured after 24 hrs by Annexin-V/propidium iodide staining based flow cytometry (reference value: 0.69 to 0.92%); type: functional
MDA-MB-231 [8] = test: Induction of endoplasmic reticulum stress in human MDA-MB-231 cells assessed as increase in PERK expression at 2.5 to 10 uM measured after 24 hrs by DAPI staining based immunofluorescence assay; type: functional, cell-based; conditions: dose 2.5-10 µM
MDA-MB-231 [9] = test: Induction of apoptosis in human MDA-MB-231 cells assessed as late apoptotic cells at 2.5 uM measured after 24 hrs by Annexin-V/propidium iodide staining based flow cytometry (reference value: 0.71 to 2.94%); type: functional
[10] = biological target: T2, Protein deacetylase HDAC6 (Homo sapiens, UniProt Q9UBN7); test: Inhibition of recombinant human His-tagged HDAC6 expressed in baculovirus infected insect cells using Ac-Leu-Gly-Lys(Ac)-AMC as substrate measured after 30 mins by fluorescence assay
T2 sequence (Q9UBN7 whole entry): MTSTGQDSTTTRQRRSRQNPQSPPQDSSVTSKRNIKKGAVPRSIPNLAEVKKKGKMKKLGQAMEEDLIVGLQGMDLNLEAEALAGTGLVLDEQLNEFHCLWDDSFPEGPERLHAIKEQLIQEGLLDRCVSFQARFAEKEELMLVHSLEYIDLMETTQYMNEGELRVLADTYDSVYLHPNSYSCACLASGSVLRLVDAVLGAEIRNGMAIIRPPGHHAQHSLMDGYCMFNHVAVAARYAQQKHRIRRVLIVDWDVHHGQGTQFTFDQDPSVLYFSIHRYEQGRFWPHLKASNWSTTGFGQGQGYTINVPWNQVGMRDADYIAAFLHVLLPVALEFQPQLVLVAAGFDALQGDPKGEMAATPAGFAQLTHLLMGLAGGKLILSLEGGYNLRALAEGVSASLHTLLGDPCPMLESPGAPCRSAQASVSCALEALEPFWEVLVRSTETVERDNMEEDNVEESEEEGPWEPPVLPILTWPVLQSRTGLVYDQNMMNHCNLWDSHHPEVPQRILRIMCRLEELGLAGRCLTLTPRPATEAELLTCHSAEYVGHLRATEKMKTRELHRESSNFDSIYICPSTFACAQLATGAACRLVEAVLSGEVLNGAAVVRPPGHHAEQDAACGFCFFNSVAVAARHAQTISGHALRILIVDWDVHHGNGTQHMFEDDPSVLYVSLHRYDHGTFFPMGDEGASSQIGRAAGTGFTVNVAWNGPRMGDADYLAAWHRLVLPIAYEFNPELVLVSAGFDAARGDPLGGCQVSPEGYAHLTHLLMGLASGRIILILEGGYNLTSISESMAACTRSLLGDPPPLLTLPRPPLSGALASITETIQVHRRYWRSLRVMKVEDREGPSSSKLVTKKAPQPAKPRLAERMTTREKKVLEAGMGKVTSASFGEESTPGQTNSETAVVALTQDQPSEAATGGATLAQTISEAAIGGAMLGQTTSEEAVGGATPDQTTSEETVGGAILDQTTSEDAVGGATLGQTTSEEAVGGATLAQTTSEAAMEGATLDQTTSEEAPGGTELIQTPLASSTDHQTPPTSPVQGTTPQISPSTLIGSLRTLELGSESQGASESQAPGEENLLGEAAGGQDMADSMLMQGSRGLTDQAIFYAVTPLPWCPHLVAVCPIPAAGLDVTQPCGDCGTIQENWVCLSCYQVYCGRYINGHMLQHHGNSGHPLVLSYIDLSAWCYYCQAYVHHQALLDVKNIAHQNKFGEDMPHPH

MDA-MB-231 [11] = test: Induction of apoptosis in human MDA-MB-231 cells assessed as increase in cleaved caspase-8 expression at 2.5 to 10 uM measured after 24 hrs by Western blot analysis; type: functional, cell-based; conditions: dose 2.5-10 µM

Sequence of Histone deacetylase 1 (Q13547 whole entry): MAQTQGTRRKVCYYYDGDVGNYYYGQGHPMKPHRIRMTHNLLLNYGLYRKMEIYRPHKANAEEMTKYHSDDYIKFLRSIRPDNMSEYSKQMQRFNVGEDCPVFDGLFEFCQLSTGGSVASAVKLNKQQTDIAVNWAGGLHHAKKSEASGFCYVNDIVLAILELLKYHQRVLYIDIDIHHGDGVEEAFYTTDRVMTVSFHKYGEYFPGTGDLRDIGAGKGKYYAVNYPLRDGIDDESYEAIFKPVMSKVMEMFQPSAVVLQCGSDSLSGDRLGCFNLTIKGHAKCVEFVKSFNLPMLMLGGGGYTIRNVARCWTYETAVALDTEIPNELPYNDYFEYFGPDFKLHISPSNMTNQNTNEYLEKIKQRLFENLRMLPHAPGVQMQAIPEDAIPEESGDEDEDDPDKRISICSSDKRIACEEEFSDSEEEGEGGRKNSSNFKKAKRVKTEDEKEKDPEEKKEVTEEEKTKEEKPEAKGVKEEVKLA

- pIC50 [3]: 7.11
- pIC50 (Histone deacetylase 1): 7.00
- pIC50 [10]: 7.26
Compound: COc1cc(OC)c2c(N3CCS(=O)(=O)CC3)nc(-c3cc(C)c(OCCCCCC(=O)NO)c(C)c3)nc2c1
- Activity (MDA-MB-231 [1]): Active
- Activity (MDA-MB-231 [2]): Active
- viability at 2.5 µM (MDA-MB-231 [4]): 84.2%
- viability at 10 µM (MDA-MB-231 [5]): 25.6%
- Activity (MDA-MB-231 [6]): 0.26%
- Activity (MDA-MB-231 [7]): 38.66%
- Activity (MDA-MB-231 [8]): Active
- Activity (MDA-MB-231 [9]): 3.01%
- Activity (MDA-MB-231 [11]): Active
